Like-named read-outs stand apart in the source and are kept apart here.
Tests used:
miR-21 = miR-21 luciferase reporter (Luc-miR-21) screening assay in HeLa cells; assay type: cell-based, human; conditions: HeLa Luc-miR-21 reporter; for increase of the luciferase signal: 48 hours, compared to untreated cells
Text: (§1) MicroRNA miR-21 was selected as a target miRNA due to its involvement as an anti-apoptotic factor in cancer cells and its elevated levels in various cancers such as breast, ovarian, and lung cancer as well as glioblastoma (Chan, et al. (2005) Cancer Res. 65:6029). Lentiviral reporter constructs for miRNA activity were assembled by introducing the complementary sequences of mature miR-21 (5′-UAGCUUAUCAGACUGAUGUUGA-3′; SEQ ID NO:13), miR-30A (5′-CUUUCAGUCGGAUGUUUGCAGC-3′; SEQ ID NO:14) as a specificity control, and a linker sequence (a previously present multiple-cloning site with no detectable recognition by natural miRNAs) downstream of a luciferase reporter gene as a negative control (FIG. 1).
(§2) Luc-miR-21, Luc-miR-30A, and Luc-linker (control) were, by viral infection, introduced into HeLa cells, which express high levels of miR-21, but only low levels of miR-30A (Cheng, et al. (2005) Nucl. Acids Res. 33:1290).
To illustrate the method of the present invention, a primary screen of >1000 compounds was conducted. The library was composed of a collection of novel compounds and the Library of Pharmacologically Active Compounds (LOPAC library, Sigma-Aldrich, St Louis, Mo.). All compounds were stored at a 10 mM concentration in DMSO to keep the DMSO concentration in the actual screen at 0.1% thereby minimizing toxicity. HeLa cells stably expressing the miR-reporter were treated with DMSO ranging from 0.1-1%. Luciferase signals were determined 48 hours after the treatment.
HeLa cells (2500 cells) were plated in each well of 384-well plate 24 hour before the addition of compounds. Compounds at 10 μM final concentration were added to each well. Luciferase signal were determined 48 hours after compound treatment. Using this screening assay, compound 1 was identified as a miR-21 antagonist.

[1] = tested on: HEK293T (human embryonic kidney) cells; test: Cell viability assay, HEK293T cells; assay type: cell-based; conditions: 10 μM Compound
Text: (§3) In these assays, A172 cells (glioblastoma cells) were contacted with a miR-21 inhibitor either alone or in combination with a conventional antiproliferative agent (i.e., 5-fluorouracil or curcumin). At the concentrations indicated, no toxic effects on HEK293T (human embryonic kidney) cells were observed.

Luc-Linker control = test: Luc-linker control luciferase reporter in HeLa cells; assay type: cell-based, human; conditions: 10 μM, relative to DMSO control
Text: as §1, §2
(§4) It was subsequently determined whether Compound 2 was a specific inhibitor of miR-21 or whether it could interfere with the general miRNA biogenesis pathway. Thus, HeLa cells stably expressing both the miR-30 luciferase reporter construct and miR-30 were treated with Compound 2.

[2] = tested on: HCT116 colon cancer cells; test: Cell proliferation of HCT116 cells, drug combinations; assay type: cell-based, human
Text: The % activity indicates % live cell activity.

mature miR-93 = test: Quantitative RT-PCR of mature miR-93; assay type: cell-based, human; conditions: for mature miR-93 level, % of DMSO control: Table 2
Text: (§5) UNG (Applied Biosystems). […] (Sigma).

[3] = tested on: primary miR-21 (pri-miR-21); test: Quantitative RT-PCR of primary miR-21; assay type: cell-based, human; conditions: for primary miR-21 expression: HCT116 colon cancer cells and A172 glioblastoma cells, FIG. 6A
Text: as §5

mature miR-21 = test: Quantitative RT-PCR of mature miR-21; assay type: cell-based, human; conditions: for miR-21 RT PCR* (% Decrease as compared to DMSO control): Table 2; for mature miR-21 expression: HCT116 colon cancer cells and A172 glioblastoma cells, FIG. 6B
Text: as §5

[4] = tested on: A172 cells (glioblastoma cells); test: Cell viability assay, A172 cells, alone or with antiproliferative agent; assay type: cell-based; conditions: Homo sapiens, A 172
Text: as §3

mature miR-30 = test: Quantitative RT-PCR of mature miR-30; assay type: cell-based, human; conditions: for mature miR-30 level (% of DMSO control): Table 2
Text: as §5

miR-30 = miR-30 luciferase reporter in HeLa cells stably expressing miR-30; assay type: cell-based, human; conditions: HeLa cells stably expressing miR-30 reporter and miR-30, 10 μM
Text: as §1
The specificity of the reporter system was tested by assaying cells which contained both the Luc-miR-30A reporter and a construct expressing exogenous miR-30.
as §4

[5] = HeLa cells, 10 μM, relative to DMSO
[6] = MDA-MB-231, MCF-7 and A172 cell lines
[7] = 10 μM Compound + 5FU 0.5 μM, read-out: Cell Viability A172 Cells, Compound + 5FU (0.5 μM)
[8] = 10 μM Compound + Curcumin 10 μM, read-out: Cell Viability A172 Cells, Compound + Curcumin (10 μM)
[9] = 10 μM Compound alone, read-out: Cell Viability A172 Cells, Compound

SMILES | Cell Viability HEK293T Cells [1] | mature miR-93 level, % of DMSO control (mature miR-93) | miR-21 RT PCR* (% Decrease as compared to DMSO control) (mature miR-21) | viability at 10 µM [4, 7] | viability at 10 µM [4, 8] | viability at 10 µM [4, 9] | mature miR-30 level (% of DMSO control) (mature miR-30) | other results
Nc1ccc(/N=N/c2ccc([N+](=O)[O-])cc2)cc1 [Compound 1] | – | – | – | – | – | – | – | increase of the luciferase signal (miR-21; 10 μM): 251%
C#CCNC(=O)c1ccc(/N=N/c2ccccc2)cc1 [Compound 2, (E)-4-(Phenyldiazenyl)-N-(prop-2-ynyl)benzamide] | 98% | 115% | 22% | 8% | 12% | 84% | 110% | fold increase of the luciferase signal (miR-21; 10 μM): 5 fold; increase of the luciferase signal (miR-21; 10 μM): 485%; EC50 (miR-21; Homo sapiens, concentration dependent, read-out: EC50 of increase of luciferase signal): 2000 nM; luciferase signal in HeLa cells expressing the Luc-Linker control (Luc-Linker control): did not affect the luciferase signal; proliferation of HCT116 colon cancer cells, combination with 5-FU ([2]; FIG. 5A): synergistically decrease; proliferation of HCT116 colon cancer cells, combination with Curcumin ([2]; FIG. 5B): synergistically decrease; level of endogenous mature miR-93 (mature miR-93; [5]): not reduced; mature miR-93 level (mature miR-93; [6]): no effect; reduction of primary miR-21 (pri-miR-21) level ([3]; HeLa cells, 10 μM, compared to DMSO control): 87%; primary miR-21 level [3, 6]: suppressed; mature miR-21 level (mature miR-21; [6]): suppressed; level of exogenous mature miR-30 (mature miR-30; [5]): not reduced; mature miR-30 level (mature miR-30; [6]): no effect; luciferase signal of miR-30 luciferase reporter (miR-30): no increase of the luciferase signal was detected
C#CCNC(=O)c1ccc(NNc2ccccc2)cc1 [Compound 3] | 95% | 56% | 39% | 52% | 56% | 75% | 85% | –
Cn1c2c(c3ccccc3c1=O)C(=O)c1cc3c(cc1-2)OCO3 [Compound 4] | 98% | 116% | 12% | 62% | 54% | 66% | 136% | –
O=c1[nH]cc(F)c(=O)[nH]1 [Compound 5-FU, 5-fluorouracil, reference compound] | – | – | – | – | – | – | – | primary miR-21 expression [3]: increased; mature miR-21 expression (mature miR-21): increased
COc1ccc2c(c1[N+](=O)[O-])CCC1C2CC[C@]2(C)C(=O)CCC12 (some centres unmarked) [Compound 6] | 97% | 83% | 34% | 47% | 39% | 71% | 73% | –
COc1cc(/C=C/C(=O)CC(=O)/C=C/c2ccc(O)c(OC)c2)ccc1O [Curcumin, curcumin, reference compound] | – | – | – | – | – | – | – | primary miR-21 expression [3]: increased; mature miR-21 expression (mature miR-21): increased

Reference: patent US20120010177A1, “MicroRNA Modulators and Method for Identifying And Using The Same” (The Wistar Institute / North Carolina State University, priority 2008, published 2012)
